The subject of one data set is Cochliobolus miyabeanus. Put plainly: Cochliobolus test (rice) / protective. The conditions noted are these: Bipolaris oryzae, in Oryza sativa, 96 h, read-out: efficacy.
A further data set concerns Venturia inaequalis. Put plainly: Venturia test (apple) / protective. The data set is classed as in vivo. The conditions noted are these: 240 h, active compound concentration 100 ppm, evaluation 10 days after inoculation, read-out: efficacy. The protocol:
After the spray coating has dried on, the plants are inoculated with an aqueous conidia suspension of the apple scab pathogen Venturia inaequalis and then remain for 1 day in an incubation cabinet at about 20° C. and 100% relative atmospheric humidity.

The nature of data set [1]: logP by LC-MS on reversed-phase columns (C 18), method [b], acidic range pH 2.7. The data set is classed as physicochemical. The note with it: pH 2.7, log p. The protocol: (§1) The logP values were determined in accordance with EEC Directive 79/831 Annex V.A8 by HPLC (High Performance Liquid Chromatography) on reversed-phase columns (C 18), using the methods below:
[b] The LC-MS determination in the acidic range is carried out at pH 2.7 using the mobile phases 0.1% aqueous formic acid and acetonitrile (contains 0.1% formic acid), linear gradient from 10% acetonitrile to 95% acetonitrile.

In another data set the test system is Rhizoctonia solani. Put plainly: Rhizoctonia test (rice) / protective. The data set is classed as in vivo. The note with it: 96 h, active compound concentration 250 ppm, evaluation 4 days after inoculation, read-out: efficacy.
In a further data set the test system is Fusarium proliferatum. As to the kind of experiment: Production of fumonisin FB1 by Fusarium proliferatum (microtitre plates; FB1 by HPLC-MS/MS, growth by OD620). The data set is classed as cell-based. The note with it: Fusarium proliferatum, 144 h.
The test system of the next data set is Pyrenophora teres. As to the kind of experiment: Pyrenophora teres test (barley) / protective. The note with it: 192 h, active compound concentration 500 ppm, evaluation 8 days after inoculation, read-out: efficacy. The data set is classed as in vivo. The protocol:
After the spray coating has dried on, the plants are sprayed with a spore suspension of Pyrenophora teres. The plants remain in an incubation cabinet for 48 hours at 20° C. and 100% relative atmospheric humidity.

The subject of another data set is Pyricularia oryzae. Put plainly: whole plant or invertebrate. The data set is classed as in vivo. The note with it: 120 h, read-out: efficacy.
The subject of the next data set is Sphaerotheca fuliginea. As to the kind of experiment: Sphaerotheca test (cucumber) / protective. The data set is classed as in vivo. The conditions noted are these: Podosphaera fuliginea, 168 h, active compound concentration 500 ppm, evaluation 7 days after inoculation, read-out: efficacy. The protocol:
The plants are subsequently placed in a greenhouse at 70% relative atmospheric humidity and a temperature of 23° C.

The next data set concerns Leptosphaeria nodorum. Put plainly: Leptosphaeria nodorum test (wheat) / protective. The data set is classed as in vivo. The note with it: Parastagonospora nodorum, active compound concentration 500 ppm, evaluation 7-9 days after inoculation, read-out: efficacy. The protocol: Thereafter, the plants are placed in a greenhouse at 90% relative atmospheric humidity and a temperature of 22° C.

The subject of another data set is Alternaria solani. As to the kind of experiment: Alternaria test (tomato) / protective. The data set is classed as in vivo. The conditions noted are these: 72 h, active compound concentration 100 ppm, evaluation 3 days after inoculation, read-out: efficacy. The protocol: The plants are then placed in an incubation cabinet at about 20° C. and 100% relative atmospheric humidity.

Data set [2] can be described thus: logP by HPLC on reversed-phase columns (C 18), method [a], acidic range pH 2.3. The data set is classed as physicochemical. The conditions noted are these: pH 2.3, logP (pH2.3). As for the experimental part:
as §1
[a] The determination is carried out in the acidic range at pH 2.3 using the mobile phases 0.1% aqueous phosphoric acid and acetonitrile, linear gradient from 10% acetonitrile to 95% acetonitrile.

Data set [3] can be described thus: logP by LC-MS on reversed-phase columns (C 18), method [c], neutral range pH 7.8. The note with it: pH 7.8. The data set is classed as physicochemical. As for the experimental part:
as §1
[c] The LC-MS determination in the neutral range is carried out at pH 7.8 using the mobile phases 0.001 molar aqueous ammonium bicarbonate solution and acetonitrile, linear gradient from 10% acetonitrile to 95% acetonitrile.

The test system of another data set is Fusarium graminearum. As to the kind of experiment: microbe, parasite or virus in culture. The conditions noted are these: 168 h, read-out: DON/AcDON-inhibitory activity. The data set is classed as cell-based.
A short description of data set [4]: logP by HPLC on reversed-phase columns (C 18), method [a], acidic range pH 2.3. The data set is classed as physicochemical. The note with it: pH 2.94, logP (pH2.94).
[5] abbreviates: growth, OD620 at the beginning and after 6 days, read-out: pI50 growth (converted).

Like-named read-outs stand apart in the source and are kept apart here.

Procedure for Cochliobolus miyabeanus: Cochliobolus Test (Rice)/Protective • Solvent: 28.5 parts by weight of acetone • Emulsifier: 1.5 parts by weight of alkylaryl polyglycol ether
1 day after the treatment, the plants are inoculated with an aqueous spore suspension of Cochliobolus miyabeanus. The plants are then placed in a greenhouse at 100% relative atmospheric humidity and 25° C.
Evaluation is carried out 4 days after the inoculation.

`CC[S+]([O-])c1cccc(Nc2ncc(Cl)c(NC3CCC3)n2)c1` (stereo not shown) [Example 28, 5-Chloro-N^4-cyclobutyl-N^2-[3-(ethylsulphinyl)phenyl]pyrimidine-2,4-diamine]: the pest or weed control at 250 ppm in the data set on Cochliobolus miyabeanus, in the data set with Rhizoctonia solani and in the data set with Pyricularia oryzae was ≥ 80% in each case. The pest or weed control at 100 ppm in the data set on Venturia inaequalis and in the data set on Alternaria solani was ≥ 70% each time. For the same compound, the chromatographic logP in data set [1] and in data set [2] was 1.76 each time. Also, the IC50 was 3980 nM in the data set with Fusarium proliferatum (read-out: pI50 Fum) and 20000 nM in the data set on Fusarium proliferatum (setting [5]). In addition, the pest or weed control at 500 ppm with Pyrenophora teres, in the data set with Sphaerotheca fuliginea and with Leptosphaeria nodorum was ≥ 70% each time.

For `COCc1cccc(Nc2ncc(Cl)c(N(C)C3CC3)n2)c1` [Example 58], in the data set with Venturia inaequalis, the pest or weed control at 100 ppm was ≥ 70%. The chromatographic logP stood at 2.7 in data set [1] and 3.76 in data set [3]. Besides, the inhibition at 50 µM with Fusarium graminearum is > 80%. For the same compound, the pest or weed control at 500 ppm with Pyrenophora teres, with Sphaerotheca fuliginea and in the data set on Leptosphaeria nodorum was ≥ 70% in each case.

Consider `COC(C)(C)c1cccc(Nc2ncc(Cl)c(NC3CC3)n2)c1` [Example 59], for which the pest or weed control at 250 ppm with Cochliobolus miyabeanus, in the data set with Rhizoctonia solani and in the data set on Pyricularia oryzae was ≥ 80% each time. Also, the pest or weed control at 100 ppm with Venturia inaequalis and in the data set on Alternaria solani was ≥ 70% in each case. Besides, the chromatographic logP was 2.16 in data set [1] and 3.5 in data set [3]. In addition, the IC50 with Fusarium proliferatum (read-out: pI50 Fum) was 501 nM; in the data set on Fusarium proliferatum (setting [5]) it was 3160 nM. In addition, the pest or weed control at 500 ppm in the data set on Pyrenophora teres, in the data set with Sphaerotheca fuliginea and in the data set on Leptosphaeria nodorum was ≥ 70% in each case.

Take `COCCc1cccc(Nc2ncc(Cl)c(NC3CC3)n2)c1` [Example 60]: the pest or weed control at 250 ppm with Cochliobolus miyabeanus, in the data set with Rhizoctonia solani and in the data set on Pyricularia oryzae was ≥ 80% in each case. In addition, the pest or weed control at 100 ppm in the data set on Venturia inaequalis and with Alternaria solani was ≥ 70% throughout. Also, the chromatographic logP in data set [1] turned out to be 2.41. For the same compound, the IC50 is 631 nM in the data set on Fusarium proliferatum (read-out: pI50 Fum) and 1580 nM with Fusarium proliferatum (setting [5]). Also, the pest or weed control at 500 ppm with Pyrenophora teres, in the data set with Sphaerotheca fuliginea and with Leptosphaeria nodorum was ≥ 70% in each case.

With `CCC(SC)c1cccc(Nc2ncc(Cl)c(NC3CC3)n2)c1` (stereo not shown) [Example 61, 5-Chloro-N^4-cyclopropyl-N^2-{3-[1-(methylsulphanyl)propyl]phenyl}pyrimidine-2,4-diamine], the pest or weed control at 100 ppm in the data set with Venturia inaequalis and in the data set on Alternaria solani was ≥ 70% throughout. For the same compound, the chromatographic logP turned out to be 2.94 in data set [1] and 2.59 in data set [2]. For the same compound, the pest or weed control at 250 ppm in the data set on Rhizoctonia solani and in the data set on Pyricularia oryzae was ≥ 80% each time. The inhibition at 50 µM with Fusarium graminearum was > 80%. For the same compound, the pest or weed control at 500 ppm in the data set on Sphaerotheca fuliginea and with Leptosphaeria nodorum was ≥ 70% in each case.

Consider `COCc1cccc(Nc2ncc(Cl)c(NCCF)n2)c1` [Example 138], for which the pest or weed control at 100 ppm with Venturia inaequalis and in the data set on Alternaria solani was ≥ 70% in each case. The chromatographic logP in data set [1] was 1.48; in data set [3], 2.57. In the data set with Fusarium graminearum, the inhibition at 50 µM was > 80%. The pest or weed control at 500 ppm with Pyrenophora teres, in the data set on Sphaerotheca fuliginea and in the data set with Leptosphaeria nodorum was ≥ 70% each time. For the same compound, the pest or weed control at 250 ppm in the data set on Pyricularia oryzae is ≥ 80%.

With `COCC(O)c1cccc(Nc2ncc(C(F)(F)F)c(NC3CC3)n2)c1` (stereo not shown) [Example 195], the chromatographic logP in data set [1] stood at 1.97; in data set [3], 2.64. The pest or weed control at 250 ppm in the data set with Rhizoctonia solani and in the data set on Pyricularia oryzae was ≥ 80% throughout. Also, the inhibition at 50 µM with Fusarium graminearum was > 80%. Also, the pest or weed control at 500 ppm in the data set with Pyrenophora teres, in the data set with Sphaerotheca fuliginea and in the data set on Leptosphaeria nodorum was ≥ 70% in each case.

In turn, `CC(O)c1cccc(Nc2ncc(Cl)c(NC3CC3)n2)c1` (stereo not shown) [Ic-IV-1, 1-(3-{[5-Chloro-4-(cyclopropylamino)pyrimidin-2-yl]amino}phenyl)ethanol] displayed a chromatographic logP in data set [4] of 1.25.

With `CCC[S+]([O-])c1cccc(Nc2ncc(C(F)(F)F)c(Cl)n2)c1` (stereo not shown) [Xb-1, 4-Chloro-N-[3-(propylsulphinyl)phenyl]-5-(trifluoromethyl)pyrimidin-2-amine], the chromatographic logP in data set [4] was determined as 1.76.

In general, chromatographic logP refers to a lipophilicity value derived from retention on a column. A high value points to higher lipophilicity.
